Assay results: paper PMC11541474, “Toward New Therapeutics for Visceral Leishmaniasis: Efficacy and Mechanism of Action of Amides Inspired by Gibbilimbol B” (ACS Omega, 2024)

Columns and labels:
Assay type in all cases: cell-based, Leishmania (L.) infantum
[1] = system: L. (L.) infantum intracellular amastigotes; assay: ex-vivo assay using intracellular amastigotes of L. (L.) infantum; settings: for S.I. amastigote (selectivity index): CC50 against NCTC cells/EC50 against amastigotes; for EC50: Leishmania infantum, L. (L.) infantum intracellular amastigotes, read-out: Ec50 Amastigote (μm) ± SD
Method: Evaluation of in vitro activity against promastigote and amastigote forms of L. (L.) infantum was performed as previously reported assays.[40]−[43] The CC50 and EC50 values were calculated using sigmoidal dose–response curves using Graph Pad Prism 5.0 software. One-way ANOVA testing with Tukey’s multiple comparison tests were used for evaluation of the statistical significance (p-value) of differences between the samples, which were tested in duplicate and all assays were repeated at least twice.

[2] = system: L. (L.) infantum promastigotes
Description: Changes in the plasma membrane integrity of Leishmania spp. can lead to cell death due to pore formation, pH imbalance, and nutrient-transport failure. Initially, the fluorescent probe Sytox Green was employed to analyze the permeability of the plasma membrane. […] Untreated parasites were used as a negative control for normalization (0% permeabilization) whereas the nonionic surfactant Triton X-100 was used for as positive control (100% permeabilization).
Figure 4 Plasma membrane permeability in L. (L.) infantum promastigotes after 4 h of treatment with compound (A) 9 (141.5 μM) or (B) 10 (110.1 μM), using the fluorescent probe Sytox Green (p < 0.0001). Negative control: untreated parasites; positive control: Triton X-100 (TX-100).
Assays for determination of plasma membrane integrity of L. (L.) infantum were conducted as previously reported.[46] Briefly, compounds 9 (141.5 μM) and 10 (110.1 μM) were added to different wells and the resulting fluorescence was measured using a fluorimetric microplate reader (FilterMax F5Multi-Mode, Molecular Devices). Triton X-100 (0.5%, v/v) and untreated parasites were used as positive negative controls, respectively.[47]

[3] = system: L. (L.) infantum promastigotes; assay: mitochondrial membrane electric potential, JC-1 flow cytometry; settings: 9 at 141.5 μM, 10 at 110.1 μM, 4 h exposure
Description: Mitochondria perform several vital functions and play an essential role in maintaining cellular balance, thus making them a potential target for new drugs against Leishmania spp. Mitochondria are composed of two interconnected membranes and play crucial roles in energy production (ATP), calcium regulation, and the induction of programmed cell death among other processes.[22],[23] Prolonged changes in mitochondrial membrane potential can lead to irreversible cellular damage.[24] The mitochondrial membrane potential of L. (L.) infantum promastigotes (Figure 6) was evaluated by flow cytometry using JC-1.[25] […] The compound carbonyl cyanide m-chlorophenyl […] (CCCP) was used to induce maximum depolarization (positive control), whereas untreated parasites served as a negative control. […] Both alterations may have contributed to the observed mitochondrial dysfunction and might explain the reduction in ROS levels after treatment that was observed. […] JC-1 dye fluorescence was measured by flow cytometry (excitation and emission at 488 and 530 nm, respectively) after incubation. […] Fluorescence is reported as the quotient of channels BL2/BL1.**: p = 0.0001. […] Fluorescence was measured with excitation and emission filters at 488 and 530 nm (BL-1)/574 nm (BL-2), respectively. […]

[4] = system: L. (L.) infantum promastigotes; assay: intracellular Ca2+ levels, Fura-2 AM; settings: 9 at 141.5 μM, 10 at 110.1 μM
Description: Compounds that affect intracellular Ca^2+ balance in Leishmania may cause changes in the mechanism of transport of these ions in trypanosomatids.[26] In Leishmania spp., Ca^2+ regulation involves the endoplasmic reticulum, the mitochondria, and the acidocalcisomes;[27],[28] increases in this intracellular ion can trigger processes such as apoptosis that led to the death of the parasite.[29] The Fura-2 AM marker was used to measure intracellular Ca^2+ levels in Leishmania (L.) infantum promastigotes. Fura-2 has a high affinity for Ca^2+, which results in the formation of fluorescent intracellular complexes that are proportional to intracellular Ca^2+ levels.[30] […] (Triton X-100) at all monitored times. […] Compound 10 induced similar levels of fluorescence to those induced by compound 9 but at a slower rate, as these levels were observed after 200 min of incubation.  Figure 7 Intracellular Ca^2+ levels in L. (L.) infantum treated with (A) compound 9 (141.5 μM) or (B) compound 10 (110.1 μM). Results were obtained using the Fluo-4 AM dye (excitation and emission at 485 and 535 nm, respectively). Untreated and treated with Triton X-100 (0.5% v/v) parasites were used as negative and positive controls, respectively. Fluorescence is represented as a percentage relative to the untreated control at 0 min (100%).***p < 0.0001. Measurements of intracellular Ca^2+ levels were conducted as previously reported.[49] Briefly, promastigotes were pretreated with Fura-2 AM (Molecular Probes) in PBS, washed and treated with compounds 9 (141.5 μM) or 10 (110.1 μM). Fluorescence was measured using a microplate reader (FilterMax […]-Mode, Molecular Devices) with excitation and emission at 360 and 500 nm, respectively. Untreated and treated parasites (0.5% Triton X-100) were used as negative and positive controls, respectively.

CCCCC(CC)CNC(=O)c1ccc(Cl)cc1 (stereo not drawn) [Compound 9, N-(2-Ethylhexyl)-4-chlorobenzamide]
S.I. amastigote (selectivity index) [1]: >15.7 | EC50 [1]: 12.7 ± 4.9 µM | permeabilization of the plasma membrane (Sytox Green) [2]: did not induce permeabilization of the membrane | mitochondrial membrane potential (JC-1) compared with untreated promastigotes [3]: significant depolarization of the mitochondrial membrane | incubation time at which Ca^2+ levels approached those of the positive control (Triton X-100) [4]: ≤ 20 min | intracellular Ca^2+ concentration compared with untreated parasites [4]: increased the intracellular Ca^2+ concentration

CCCCC(CC)CNC(=O)c1ccc([N+](=O)[O-])cc1 (stereo not drawn) [Compound 10, N-(2-Ethylhexyl)-4-nitrobenzamide]
S.I. amastigote (selectivity index) [1]: >16.4 | EC50 [1]: 12.2 ± 7.2 µM | permeabilization of the plasma membrane (Sytox Green) [2]: did not induce permeabilization of the membrane | mitochondrial membrane potential (JC-1) compared with untreated promastigotes [3]: not statistically significant | incubation time at which Ca^2+ levels approached those of the positive control (Triton X-100) [4]: 200 min | intracellular Ca^2+ concentration compared with untreated parasites [4]: increased the intracellular Ca^2+ concentration
